Measured values as given in patent publication US4379156A, “Heterocyclic chemicals, their preparation and use” (Burroughs Wellcome Co., priority 1979, dated 1983).
Values joined by “and” are separate entries in the source; they are usually repeats but may differ in a detail not shown here. Equal entries are not always repeated. Where two headings read alike, the source gives them in different places.

Tests used:
Schistosoma mansoni = test: Schistosomicidal activity in infected mice (proportion of dead worms); format: in vivo; settings: 12.5 mg/kg, dead worms relative to total worms recovered, autopsy 7 to 10 days after treatment; for % kill P.O.: oral; for % kill S.C.: subcutaneous
Experimental: Male mice weighing between 18 and 20 g were each infected percutaneously with 80 to 100 cercariae of Schistosoma mansoni. Groups of 5 or 10 mice with a 7 to 9 week infection of schistosomes were dosed orally (P.O.) or subcutaneously (S.C.) with 12.5 mg/kg of the compounds to be tested, and the animals were autopsied from 7 to 10 days after treatment. The number, sex and proportional distribution of schistosomes within the mesenteric, portal and intrahepatic veins were determined, and the final assessment of dose response was made on the proportion of dead worms found in relation to the total worms recovered in the treated group.

[1] = Toxicity in adult male mice (LD50); settings: mouse, in vivo, observed up to 10 days
Experimental: Groups of adult male mice were given graded doses of the compound to be tested by stomach tube (P.O.) or subcutaneously (S.C.). The animals were kept under observation at frequent intervals up to 6 hours, then at 24 hours and daily for up to 10 days for overt changes in behaviour and for fatalities.

[2] = Toxicity in adult male mice (LD50); settings: mouse, in vivo, iv, I.V.
[3] = po, by stomach tube, read-out: LD50 P.O.
[4] = sc, subcutaneous, read-out: LD50 S.C.

## CC(=O)NC(=O)Cn1cc([N+](=O)[O-])sc1=NC(=O)c1ccccc1 [*(1), 2-[2-(benzoylimino)-5-nitro-4-thiazolin-3yl]diacetamide, reference compound]
Schistosoma mansoni
  % kill P.O.: 58%
  % kill S.C.: 53%
[1]; [3]
  LD50 at 240 h: 953 mg/kg
[2]
  LD50: 192 mg/kg

## CC(=O)NC(=O)Cn1cc([N+](=O)[O-])sc1=NC(=O)c1ccccc1C [Example 1, 2-[2-(2-Methylbenzoylimino)-5-nitro-4-thiazolin-3-yl]diacetamide]
Schistosoma mansoni
  % kill P.O.: 80%
  % kill S.C.: 100%
[1]; [3]
  LD50 at 240 h: > 2000 mg/kg
[1]; [4]
  LD50 at 240 h: > 2000 mg/kg

## NC(=O)Cn1cc([N+](=O)[O-])sc1=NC(=O)c1ccccc1 [*(2), 2-(benzoylimino)-5-nitro-4-thiazoline-3-acetamide, reference compound]
Schistosoma mansoni
  % kill P.O.: 8.5%
  % kill S.C.: 0%

## 2-[2-(2-Chlorobenzoylimino)-5-nitro-4-thiazolin-3-yl]diacetamide [Example 3]
Schistosoma mansoni
  % kill P.O.: 100% and 71%
  % kill S.C.: 99% and 98%

## CC(=O)NC(=O)Cn1cc([N+](=O)[O-])sc1=NC(=O)c1cccc([N+](=O)[O-])c1 [Example 2, 2-[2-(3-Nitrobenzoylimino)-5-nitro-4-thiazolin-3-yl]diacetamide]
Schistosoma mansoni
  % kill P.O.: 100%
  % kill S.C.: 100%
[1]; [3]
  LD50 at 240 h: > 2000 mg/kg
[1]; [4]
  LD50 at 240 h: > 2000 mg/kg

## Cc1ccccc1C(=O)N=c1sc([N+](=O)[O-])cn1CC(N)=O [Example 5, 2-[(2-Methylbenzoyl)imino]-5-nitro-4-thiazoline-3-acetamide]
[1]; [3]
  LD50 at 240 h: > 2000 mg/kg
[1]; [4]
  LD50 at 240 h: > 1000 mg/kg

## CC(=O)NC(=O)Cn1cc([N+](=O)[O-])sc1=NC(=O)c1ccccc1[N+](=O)[O-] [Example 4, 2-[2-(2-Nitrobenzoylimino)-5-nitro-4-thiazolin-3-yl]diacetamide]
Schistosoma mansoni
  % kill P.O.: 74%
  % kill S.C.: 98%

## NC(=O)Cn1cc([N+](=O)[O-])sc1=NC(=O)c1cccc([N+](=O)[O-])c1 [Example 6, 2-[(3-Nitrobenzoyl)imino]-5-nitro-4-thiazoline-3-acetamide]
[1]; [3]
  LD50 at 240 h: > 1000 mg/kg
[1]; [4]
  LD50 at 240 h: > 500 mg/kg
